Patent EP4371976B1, “IONIZABLE LIPIDS AND LIPID NANOPARTICLES CONTAINING THEREOF” (Certest Biotec, S.L., priority 2022, dated 2024)

Experiments:
[1] = RNA encapsulation efficiency of LNPs by Quant-IT Ribogreen; type: physicochemical; conditions: LNPs with luciferase mRNA; ionizable lipid:non-cationic lipid:sterol:PEG-modified lipid 50:10:38.5:1.5; percentage of RNA entrapped in the LNP
Protocol: The mRNA aqueous solution was then carefully added to the ethanol solution, and the resulted solution was homogenized by pipetting up and down for 4-5 times. The resulting LNPs were immediately diluted 1:1 with Tris buffer and dialyzed overnight against Tris buffer containing 15% sucrose. The resulting LNP solution was then collected, and the encapsulated mRNA was assessed by Quant-IT® Ribogreen (Invitrogen R11490) following the manufacturer's instructions.
(§1) The LNP solution was then adjusted to a final concentration of mRNA of 100 µg/ml. Size distribution, polydispersity and Z-potential were measured by dynamic light scattering (DLS) using Malvern Zetasizer Advance Lab Blue Label. RNA encapsulation was assessed by Quant-IT® Ribogreen following the manufacturer's instructions.

[2] = Size distribution, polydispersity and Z-potential of LNPs by dynamic light scattering (Malvern Zetasizer); type: physicochemical; conditions: LNPs, standard formulation 50:10:38.5:1.5; DLS
Protocol: as §1

[3] = Apparent pKa of LNPs comprising the ionizable lipid (Table 6); conditions: standard formulation 50:10:38.5:1.5

SMILES	Encaps. efficiency (%) [1]	P.D.I. [2]	Particle size/ Ø (nm) [2]	Z Potential (± D.E.) [mV] [2]	Apparent pKa [3]
CCCCCCCCCCCCOC(=O)CCSCCC(C(=O)NCCCn1ccnc1)C(=O)OC(CCCCCCCC)CCCCCCCC (stereo not shown) [VC-LC-0366]	89.18%	0.16	122.6 nm	-13.24 mV	6.33
CCCCCCCCCCCCCCCCOC(=O)CCSCCC(C(=O)NCCCn1ccnc1)C(=O)OC(CCCCCCCC)CCCCCCCC (stereo not shown) [VC-LC-0369]	92.05%	0.15	137.6 nm	-10.72 mV	6.02
CCCCCCCC#CCOC(=O)CCSCCC(NC(=O)CCCCCCCCCCCCCCCCC)C(=O)NCCCN1CCOCC1 (stereo not shown) [VC-LC-0390]	83.80%	0.24	192.8 nm	-1.14 mV	6.10
CCCCCCCCCCCCCOC(=O)CCSCCC(NC(=O)C(CCCCCC)CCCCCCCC)C(=O)NCCN1CCOCC1 (stereo not shown) [VC-LC-0392]	40.58%	0.19	136.1 nm	-11.14 mV	4.72
CCCCCCCCCCCCC(CCCCCCCCCC)COC(=O)CCSCCC(NC(=O)C(CCCCCC)CCCCCCCC)C(=O)NCCN1CCOCC1 (stereo not shown) [VC-LC-0407]	60.22%	0.1	167.1 nm	-12.36 mV	4.66
CCCCCCCC#CCOC(=O)CCSCCC(NC(=O)C(CCCCCC)CCCCCCCC)C(=O)NCCN1CCOCC1 (stereo not shown) [VC-LC-0408]	41.23%	0.25	168.1 nm	-15.07 mV	4.83
CCCCCCCCCCCCC(CCCCCCCCCC)COC(=O)CCSCCC(NC(=O)C(CCCCCC)CCCCCCCC)C(=O)NC1CCN(C)CC1 (stereo not shown) [VC-LC-0428]	65.37%	0.11	185.3 nm	-8.34 mV	5.84
CCCCCCCC#CCOC(=O)CCSCCC(NC(=O)C(CCCCCC)CCCCCCCC)C(=O)NC1CCN(C)CC1 (stereo not shown) [VC-LC-0429]	46.96%	0.14	155.6 nm	-12.49 mV	6.48
CCCCCCCC/C=C\CCCCCCCCOC(=O)CCSCCC(NC(=O)C(CCCCCC)CCCCCCCC)C(=O)NC1CCN(C)CC1 (stereo not shown) [VC-LC-0430]	84.48%	0.23	216.2 nm	1.65 mV	7.00
CCCC#CCCOC(=O)CCSCCC(NC(=O)C(CCCCCC)CCCCCCCC)C(=O)NC1CCN(C)CC1 (stereo not shown) [VC-LC-0432]	46.27%	0.29	126.9 nm	-16.42 mV	6.44
CCCCCCCCCCCCCCCCCC(=O)NC(CCSCCC(=O)OCC(CCCCCC)CCCCCCCC)C(=O)NC1CCN(C)CC1 (stereo not shown) [VC-LC-0433]	96.77%	0.13	180.8 nm	4.87 mV	7.75
CCCCCCCCCCCCCCCCCC(=O)NC(CCSCCC(=O)OCCCCCCCCCCCC)C(=O)NC1CCN(C)CC1 (stereo not shown) [VC-LC-0434]	99.09%	0.2483	214.6 nm	1.34 mV	5.72
CCCCCCCC/C=C\CCCCCCCCOC(=O)CCSCCC(NC(=O)CCCCCCCCCCCCCCCCC)C(=O)NC1CCN(C)CC1 (stereo not shown) [VC-LC-0438]	95.26%	0.15	181.3 nm	7.19 mV	6.61
CCCCCCCCCCCCCCOC(=O)CCSCCC(C(=O)NC1CCN(C)CC1)C(=O)OC(CCCCCCCC)CCCCCCCC (stereo not shown) [VC-LC-0444]	85.85%	0.07	185.7 nm	-3.35 mV	6.28
CCCCCCCCCCCCCCCCOC(=O)CCSCCC(C(=O)NC1CCN(C)CC1)C(=O)OC(CCCCCCCC)CCCCCCCC (stereo not shown) [VC-LC-0445]	48.02%			-10.64 mV	5.82
CCCCCCCCCCCCCOC(=O)CCSCCC(NC(=O)C(CCCCCC)CCCCCCCC)C(=O)NCCN(CC)CC (stereo not shown) [VC-LC-0473]	43.07%	0.085	134.0 nm	-7.78 mV	6.73

SMILES	Encaps. efficiency (%) [1]	P.D.I. [2]	Particle size/ Ø (nm) [2]	Z Potential (± D.E.) [mV] [2]	Apparent pKa [3]
CCCCCCCCC(CCCCCC)COC(=O)CCSCCC(NC(=O)C(CCCCCC)CCCCCCCC)C(=O)NCCN(CC)CC (stereo not shown) [VC-LC-0474]	66.27%	0.21	153.2 nm	-7.69 mV	5.61
CCCCCCCCC(CCCCCC)C(=O)NC(CCSCCC(=O)OCCCCCCCC(C)C)C(=O)NCCN(CC)CC (stereo not shown) [VC-LC-0475]	52.31%	0.13	135 nm	-4.72 mV	6.59
CCCCCCCCCCCCOC(=O)CCSCCC(NC(=O)C(CCCCCC)CCCCCCCC)C(=O)NCCN(CC)CC (stereo not shown) [VC-LC-0477]	57.43%	0.15	146.7 nm	-9.55 mV	6.65
CCCCCCCCCCCCCCOC(=O)CCSCCC(NC(=O)C(CCCCCC)CCCCCCCC)C(=O)NCCN(CC)CC (stereo not shown) [VC-LC-0478]	65.16%	0.17	156.2 nm	-7.01 mV	6.82
CCCCCCCCCCCCCCCCOC(=O)CCSCCC(NC(=O)C(CCCCCC)CCCCCCCC)C(=O)NCCN(CC)CC (stereo not shown) [VC-LC-0480]	73.32%	0.2	154.5 nm	-6.33 mV	6.37
CCCCCCCC#CCOC(=O)CCSCCC(NC(=O)C(CCCCCC)CCCCCCCC)C(=O)NCCN(CC)CC (stereo not shown) [VC-LC-0488]	62.45%	0.16	149.1 nm	-4.15 mV	6.79
CCCCCCCC/C=C\CCCCCCCCOC(=O)CCSCCC(NC(=O)C(CCCCCC)CCCCCCCC)C(=O)NCCN(CC)CC (stereo not shown) [VC-LC-0489]	60.57%	0.13	143.8 nm	-5.88 mV	6.03
CCCCCCCCC(CCCCCC)C(=O)NC(CCSCCC(=O)OCCCCCCCC(C)C)C(=O)NCC1CCN(C)CC1 (stereo not shown) [VC-LC-0492]	98.15%	0.16	150.9 nm	0.83 mV	7.47
CCCCCCCCC(CCCCCC)C(=O)NC(CCSCCC(=O)OCC(CC)CCCC)C(=O)NCC1CCN(C)CC1 (stereo not shown) [VC-LC-0493]	98.56%	0.12	128.8 nm	-0.57 mV	6.46
CCCCCCCCCCCCOC(=O)CCSCCC(NC(=O)C(CCCCCC)CCCCCCCC)C(=O)NCC1CCN(C)CC1 (stereo not shown) [VC-LC-0494]	98.99%	0.22	169.8 nm	5.52 mV	6.86
CCCCCCCCC(CCCCCC)C(=O)NC(CCSCCC(=O)OCCCCCC(C)C)C(=O)NCC1CCN(C)CC1 (stereo not shown) [VC-LC-0498]	99.46%	0.15	152.3 nm	1.06 mV	7.47
CCCCCCCC#CCOC(=O)CCSCCC(NC(=O)C(CCCCCC)CCCCCCCC)C(=O)NCC1CCN(C)CC1 (stereo not shown) [VC-LC-0505]	99.88%		168.6 nm	-2.94 mV	6.74
CCCCCCCCCCC(CCCCCCCC)C(=O)NC(CCSCCC(=O)OCCCCCCCC(C)C)C(=O)NCC1CCN(C)CC1 (stereo not shown) [VC-LC-0509]	98.62%	0.23	170.1 nm	0.25 mV	7.60
CCCCCCCCCCC(CCCCCCCC)C(=O)NC(CCSCCC(=O)OCC(CC)CCCC)C(=O)NCC1CCN(C)CC1 (stereo not shown) [VC-LC-0510]	97.61%	0.15	144.9 nm	-2.73 mV	7.39
CCCCCCCCCCCCOC(=O)CCSCCC(NC(=O)C(CCCCCCCC)CCCCCCCCCC)C(=O)NCC1CCN(C)CC1 (stereo not shown) [VC-LC-0511]	98.97%	0.14	155.6 nm	4.06 mV	6.85
CCCCCCCCCCC(CCCCCCCC)C(=O)NC(CCSCCC(=O)OCCCCCC)C(=O)NCC1CCN(C)CC1 (stereo not shown) [VC-LC-0518]	97.70%	0.17	149.1 nm	3.90 mV	6.67
